US12202826B2, “N-pyridinyl acetamide derivatives as inhibitors of the Wnt signaling pathway” (Redx Pharma PLC, priority 2014, dated 2025)

Test system: L-Wnt cells (murine Wnt-3a) / Leading Light Wnt Reporter Cells (luciferase under control of Wnt pathway response elements)
Test: Dual-Cell β-Catenin Reporter Assay
Assay type: cell-based, Mouse
Conditions: luciferase signal reduced to 50% of DMSO control
Description: Dual-Cell β-Catenin Reporter Assay
Mouse L cells transfected to constitutively produce biologically active murine Wnt-3a, referred to as L-Wnt cells, were purchased from the American Type Culture Collection, ATCC, Manassas, VA (ATCC). These cells were cultured in DMEM supplemented with 10% FCS (Gibco/Invitrogen, Carlsbad, CA), 1% geneticin and 1% sodium pyruvate (Sigma) at 37° C. with 5% CO2. The cells were seeded into 96 well plates and treated with serial dilutions of compound diluted to 0.1% DMSO concentration. After 24 hours, cell supernatants were transferred to a 96 well plate previously seeded with Leading Light® Wnt Reporter Cells, stably transfected with a luciferase gene under control of Wnt pathway response elements. After a further 24 hours, cells are treated with One-glo luciferase assay system (Promega, Madison, WI) and the luminescent signal read by envision. The IC50 of the compound is determined as the concentration that reduces the induced luciferase signal to 50% of the DMSO control.
The category “+” refers to compounds with an IC50 of >100 μM. The category “++” refers to compounds with an IC50 of 5 to 100 μM. The category “+++” refers to compounds with an IC50<5 μM.

IC50 (category of IC50) [nM] | IC50 [nM] | Compound
< 5 | – | Cc1nn(C(C)C(=O)Nc2ccc(-c3cnccn3)cn2)c(C)c1C1=CCOCC1 (stereo not drawn) [compound 81]
< 5 | – | Cc1cc(-c2cn(CC(=O)Nc3ccc(-c4cncnc4)cn3)nc2C)ccn1 [compound 91]
< 5 | – | Cc1cc(-c2ncn(CC(=O)Nc3ccc(-c4cnccn4)cn3)c2C)ccn1 [compound 87]
< 5 | – | Cc1nn(CC(=O)Nc2ccc(-c3cnccn3)cn2)c(C)c1-c1cc(N(C)C)nc(C(F)(F)F)n1 [compound 78]
5 to 100 | – | Cc1nn(CC(=O)Nc2ccc(-c3cnccn3)cn2)c(C)c1-c1cnn(C2CC2)c1 [compound 58]
5 to 100 | – | Cc1nn(CC(=O)Nc2ccc(-c3cnccn3)cn2)c(C)c1-c1ccc(N(C)C)nc1 [compound 101]
< 5 | – | Cc1c(-c2ccnc(C(F)(F)F)c2)ncn1CC(=O)Nc1ccc(-c2ncccn2)cn1 [compound 105]
< 5 | – | Cc1nn(CC(=O)Nc2ccc(-c3cnccn3)cn2)c(C)c1-c1ccnc(F)c1 [compound 61]
< 5 | – | Cc1nn(CC(=O)Nc2ccc(-c3ccnc(C#N)c3)cn2)c(C)c1-c1ccnc(C(F)(F)F)c1 [compound 71]
5 to 100 | – | Cc1nn(CC(=O)Nc2ccc(C3=CCS(=O)(=O)CC3)cn2)c(C)c1-c1ccnc(C(F)(F)F)c1 [compound 63]
< 5 | – | Cc1nn(CC(=O)Nc2ccc(-c3ccnn3C)cn2)c(C)c1-c1ccnc(C(F)(F)F)c1 [compound 55]
> 100 | – | Cc1nn(CC(=O)Nc2ccc(-c3cnccn3)cn2)c(C)c1-c1ccnn1C1CCCC1 [compound 47]
< 5 | – | Cc1cc(-c2c(C)nn(CC(=O)Nc3ccc(-c4cnccn4)cn3)c2C)ccn1 [compound 44]
5 to 100 | – | Cc1nn(CC(=O)Nc2ccc(-c3cnccn3)cn2)cc1C1=CCOCC1 [compound 89]
< 5 | – | Cc1c(-c2ccnc(F)c2)ncn1CC(=O)Nc1ccc(-c2cnccn2)cn1 [compound 110]
5 to 100 | – | Cc1nn(CC(=O)Nc2ccc(-c3cncnc3)cn2)c(C)c1-c1ccc(N(C)C)nc1 [compound 102]
< 5 | – | Cc1cc(-c2cn(CC(=O)Nc3ccc(-c4cnccn4)cn3)nc2C)ccn1 [compound 90]
< 5 | – | Cc1nn(CC(=O)Nc2ccc(-c3cncnc3)cn2)c(C)c1C1=CC(C)OC(C)C1 (stereo not drawn) [compound 84]
5 to 100 | – | Cc1nn(CC(=O)Nc2ccc(-c3cnccn3)cn2)c(C)c1C1=CCN(C(=O)OC(C)(C)C)CC1 [compound 46]
5 to 100 | – | Cc1nn(CC(=O)Nc2ccc(-c3ncccn3)cn2)c(C)c1C1CC(C)OC(C)C1 (stereo not drawn) [compound 97]
< 5 | – | Cc1nn(CC(=O)Nc2ccc(-c3cnccn3)cn2)c(C)c1C1CCOCC1 [compound 40]

IC50 (category of IC50) [nM] | IC50 [nM] | Compound
< 5 | – | Cc1nn(CC(=O)Nc2ccc(-c3ccc(C#N)nc3)cn2)c(C)c1-c1ccnc(C(F)(F)F)c1 [compound 66]
< 5 | – | Cc1nn(CC(=O)Nc2ccc(-c3cnccn3)cn2)c(C)c1C1=CC(C)OC(C)C1 (stereo not drawn) [compound 82]
5 to 100 | – | Cc1noc(C)c1-c1cnn(CC(=O)Nc2ccc(-c3cnccn3)cn2)c1 [compound 36]
< 5 | 0.34 | Cc1nn(CC(=O)Nc2ccc(-c3cncnc3)cn2)c(C)c1-c1ccnc(C(F)(F)F)c1 [compound 35]
5 to 100 | – | Cc1cc(-c2c(C)nn(CC(=O)Nc3ccc(-c4cnccn4)cn3)c2C)cnn1 [compound 51]
5 to 100 | – | Cc1nn(CC(=O)Nc2ccc(-c3cnccn3)cn2)c(C)c1-c1ccnn1C [compound 50]
< 5 | – | Cc1nn(CC(=O)Nc2ccc(-c3ncccn3)cn2)c(C)c1-c1ccnc(C(F)(F)F)c1 [compound 65]
5 to 100 | – | Cc1nn(CC(=O)Nc2ccc(-c3cnccn3)cn2)c(C)c1-c1ccnc(N)c1 [compound 79]
5 to 100 | – | Cc1nn(CC(=O)Nc2ccc(-c3cnccn3)cn2)c(C)c1C1CC(C)OC(C)C1 (stereo not drawn) [compound 92]
< 5 | – | Cc1c(-c2ccnc(C(F)(F)F)c2)ncn1CC(=O)Nc1ccc(-c2cccnc2)cn1 [compound 108]
< 5 | – | Cc1nn(CC(=O)Nc2ccc(-c3cccnc3)cn2)c(C)c1-c1ccnc(C(F)(F)F)c1 [compound 52]
5 to 100 | – | Cc1nn(CC(=O)Nc2ccc(-c3cnccn3)cn2)c(C)c1-c1cn(C)nc1C(F)(F)F [compound 70]
5 to 100 | – | Cc1nn(CC(=O)Nc2ccc(-c3cncnc3)cn2)c(C)c1C1CC(C)OC(C)C1 (stereo not drawn) [compound 96]
< 5 | – | Cc1nn(CC(=O)Nc2ccc(-c3ccccc3C#N)cn2)c(C)c1-c1ccnc(C(F)(F)F)c1 [compound 59]
< 5 | – | Cc1nn(CC(=O)Nc2ccc(-c3cnccn3)cn2)c(C)c1C1=CCOCC1 [compound 48]
< 5 | – | Cc1cc(-c2nc(C)n(CC(=O)Nc3ccc(-c4cnccn4)cn3)c2C)ccn1 [compound 86]
> 100 | – | Cn1nccc1-c1cn(CC(=O)Nc2ccc(-c3cnccn3)cn2)cn1 [compound 32]
5 to 100 | – | Cc1ncsc1-c1cnn(CC(=O)Nc2ccc(-c3cnccn3)cn2)c1 [compound 25]
5 to 100 | – | Cc1nn(CC(=O)Nc2ccc(-c3ccncc3)cn2)c(C)c1-c1ccnc(C(F)(F)F)c1 [compound 60]
5 to 100 | – | Cc1nn(C(=O)C(C)(C)Nc2ccc(-c3cnccn3)cn2)c(C)c1C1=CCCOC1 [compound 83]
5 to 100 | – | COc1ccc(-c2c(C)nn(CC(=O)Nc3ccc(-c4cnccn4)cn3)c2C)cn1 [compound 64]

Second part, the compound before the results:

Compound | IC50 (category of IC50) [nM] | IC50 [nM]
Cc1c(-c2ccnc(C(F)(F)F)c2)ncn1CC(=O)Nc1ccc(-c2cncnc2)cn1 [compound 104] | < 5 | –
COc1cc(-c2cnccn2)cnc1NC(=O)Cn1nc(C)c(-c2ccnc(C(F)(F)F)c2)c1C [compound 77] | 5 to 100 | –
Cc1nn(CC(=O)Nc2ncc(-c3cnccn3)cc2F)c(C)c1-c1ccnc(C(F)(F)F)c1 [compound 73] | 5 to 100 | –
Cc1nn(CC(=O)Nc2ccc(-c3cnccn3)cn2)cc1-c1ccnc(C(F)(F)F)c1 [compound 56] | < 5 | –
tert-butyl 4-[1-[2-oxo-2-[(5-pyrazin-2-yl-2-pyridyl)amino]ethyl]pyrazol-4-yl]-3,6-dihydro-2H-pyridine-1-carboxylate [Example 16] | 5 to 100 | –
Cc1cc(-c2cnn(CC(=O)Nc3ccc(-c4cnccn4)cn3)c2)ncn1 [compound 39] | > 100 | –
CC(=O)Nc1ccc(-c2ccc(NC(=O)Cn3cc(-c4ccnc(C(F)(F)F)c4)c(C)n3)nc2)cn1 [compound 103] | < 5 | –
O=C(Cn1cc(-c2ccnn2C2CCCC2)cn1)Nc1ccc(-c2cnccn2)cn1 [compound 45] | > 100 | –
Cc1ncc(-c2cnn(CC(=O)Nc3ccc(-c4cnccn4)cn3)c2)s1 [compound 29] | > 100 | –
COc1ccc(-c2ccc(NC(=O)Cn3cc(-c4ccnc(C(F)(F)F)c4)c(C)n3)nc2)cn1 [compound 98] | 5 to 100 | –
Cn1nccc1-c1csc(CC(=O)Nc2ccc(-c3cnccn3)cn2)c1 [compound 31] | 5 to 100 | –
O=C(Cn1cc(C2=CCOCC2)c(C(F)(F)F)n1)Nc1ccc(-c2cnccn2)cn1 [compound 88] | < 5 | –
O=C(Cn1cnc(-c2ccnc(C(F)(F)F)c2)c1)Nc1ccc(-c2cncnc2)nc1 [compound 11] | > 100 | –
Cc1cc(-c2cnn(CC(=O)Nc3ccc(N4CCN(C(=O)OC(C)(C)C)CC4)cn3)c2)ccn1 [compound 8] | 5 to 100 | –
Cc1c(-c2ccnc(C(F)(F)F)c2)ncn1CC(=O)Nc1ccc(-c2ccnc(C#N)c2)cn1 [compound 109] | 5 to 100 | –
O=C(Cn1cc(-c2ccnc(C(F)(F)F)c2)cn1)Nc1ccc(-c2cncnc2)cn1 [compound 34] | < 5 | –

Compound | IC50 (category of IC50) [nM] | IC50 [nM]
O=C(Cn1cc(-c2ccncn2)cn1)Nc1ccc(-c2cnccn2)cn1 [compound 30] | > 100 | –
O=C(Cn1cc(-c2cn[nH]c2)cn1)Nc1ccc(-c2cnccn2)cn1 [compound 33] | > 100 | –
O=C(Cn1cc(-c2ccnc(C(F)(F)F)n2)cn1)Nc1ccc(-c2cnccn2)cn1 [compound 37] | < 5 | –
O=C(Cc1cc(C2=CCOCC2)cs1)Nc1ccc(-c2cnccn2)cn1 [compound 28] | 5 to 100 | –
O=C(Cn1cc(-c2ccnc(C(F)F)c2)cn1)Nc1ccc(-c2cnccn2)cn1 [compound 21] | < 5 | –
O=C(Cc1cc(-c2ccnc(C(F)(F)F)c2)cs1)Nc1ccc(-c2cnccn2)cn1 [compound 23] | < 5 | 0.34
Cc1nccc(-c2cnn(CC(=O)Nc3ccc(-c4cnccn4)cn3)c2)n1 [compound 38] | 5 to 100 | –
O=C(Cn1cc(-c2ccnc(C(F)(F)F)c2)cn1)Nc1ccc(-c2cnccn2)cn1 [compound 17] | < 5 | –
Cc1nn(CC(=O)Nc2ccc(-c3ccnc(N(C)C)c3)cn2)cc1-c1ccnc(C(F)(F)F)c1 [compound 94] | 5 to 100 | –
CC(C)n1nccc1-c1cnn(CC(=O)Nc2ccc(-c3cnccn3)cn2)c1 [compound 43] | > 100 | –
O=C(Cn1cc(-c2cnsc2)cn1)Nc1ccc(-c2cnccn2)cn1 [compound 27] | 5 to 100 | –
O=C(Cn1cnc(C2=CCNCC2)c1)Nc1ccc(-c2cnccn2)cn1 [compound 42] | > 100 | –
Cc1nc(-c2ccnc(C(F)(F)F)c2)c(C)n1CC(=O)Nc1ccc(-c2cnccn2)cn1 [compound 72] | < 5 | –
Cc1nn(CC(=O)Nc2ccc(-c3ccc(N(C)C)nc3)cn2)cc1-c1ccnc(C(F)(F)F)c1 [compound 99] | < 5 | –
Cc1nc(-c2ccnc(C(F)(F)F)c2)cn1CC(=O)Nc1ccc(-c2cnccn2)cn1 [compound 68] | < 5 | –
